# What was measured:
# [1] = aqueous solution formulation (Hoffmann 2020); cited from earlier work
# [2] = system: nondependent, recreational users of CNS depressants; experiment: Abuse potential study, dose selection phase: TEAEs; type: in vivo, human
# Procedure: After a screening period of up to 21 days, eligible participants were randomized 3:1 to receive single escalating doses of Compound (1) (60, 80, or 90 mg) or matching placebo in 3 separate cohorts; Compound (1) was administered during 4 days of inpatient administration (FIG. 30A). Sentinel dosing was employed for each cohort, with one participant randomized to receive Compound (1) and one to receive placebo on Day 1. The remaining 6 participants (Compound (1), 5; placebo, 1) were dosed approximately 24 hours later after monitoring the safety and tolerability endpoints. Dose-escalation cohorts were separated by at least 7 days. If a dose was not well tolerated based on the safety data, doses in subsequent cohorts were to be modified, and Compound (1) dose was not allowed to exceed 90 mg. Participants underwent a 1-day, follow-up visit 7 (±2) days after the end of the treatment and were not permitted to participate in the main study.
# For the first part, dose selection, endpoints included the observer-rated Modified Observer's Assessment of Alertness/Sedation (MOAA/S) scores along with safety and tolerability endpoints which included the Columbia-Suicide Severity Rating Scale (C-SSRS), frequency and severity of adverse events (AE) and serious adverse events (SAEs), and changes from baseline in clinical laboratory assessments, vital signs, and electrocardiogram (ECG).
# (§1) The dose selection safety set included all participants who received 1 dose of Compound (1). The main study qualification safety set included all participants who received ≥1 dose of alprazolam. For the treatment phase, the randomized set included all participants who were randomized and the safety set included all participants who received ≥1 dose of Compound (1) or alprazolam. The completer set included all participants in the randomized set who completed all treatment periods, had sufficient data for evaluation of the primary endpoint, and had ≥1 observation within 2 hours of Tmax for each treatment for Drug Liking VAS scores. […] The PK set included all participants in the treatment phase who received 1 dose of Compound (1) and had 1 PK sample after dosing.
# [3] = system: nondependent, recreational users of CNS depressants; experiment: Abuse potential main study, treatment phase: TEAEs; type: in vivo, human
# Procedure: The main study consisted of 4 phases (FIG. 30B). The screening phase was a 1-day visit occurring within 21 days of the beginning of the qualification phase. The qualification phase was a 4-day, inpatient period to ensure participants could discriminate between alprazolam (active comparator) and placebo, and that they could tolerate the alprazolam 2-mg doses. Participants received single-oral doses of alprazolam 2 mg and placebo in a crossover manner 24 hours apart, and if they could discriminate between the two medications, they continued to the treatment phase. The treatment phase was a double-blind, active- and placebo-controlled, 6-way crossover design where participants were randomized equally to a single oral dose of 1 of 6 treatments: placebo, alprazolam (1.5 and 3 mg), and Compound (1) (30, 60, and 90 mg). The Compound (1) doses were based on the results from the first part, dose selection, and treatments were separated by 7 days. The follow-up phase was a 1-day visit occurring 7 (2) days after the treatment phase.
# Safety and tolerability endpoints included the frequency and severity of AEs and SAEs, the change from baseline in clinical laboratory assessments, vital signs, and ECG, and suicidality assessed by the Columbia-Suicide Severity Rating Scale (C-SSRS).
# as §1
# [4] = treatment phase, Compound (1) 30 mg (n = 65)
# [5] = treatment phase, Compound (1) 60 mg (n = 66)
# [6] = treatment phase, Compound (1) 90 mg (n = 67)
compound,measurement,setting,value
"C[C@@]1(O)CC[C@H]2[C@H](CC[C@@H]3[C@@H]2CC[C@]2(C)[C@@H](C(=O)Cn4cc(C#N)cn4)CC[C@@H]32)C1 [Compound (1), 1-(2-((3R,5R,8R,9R,10S,13S,14S,17S)-3-hydroxy-3,13-dimethylhexadecahydro-1H-cyclopenta[a]phenanthren-17-yl)-2-oxoethyl)-1H-pyrazole-4-carbonitrile]",T½ values reported by a prior study,[1],14 to 19 h
same,Any TEAE,[2]; 60 mg (n = 6),5 (83.3) n (%)
same,Asthenopia (TEAE),[2]; 60 mg (n = 6),0 n (%)
same,Blood bilirubin increased (TEAE),[2]; 60 mg (n = 6),0 n (%)
same,Disturbance in attention (TEAE),[2]; 60 mg (n = 6),0 n (%)
same,Dizziness postural (TEAE),[2]; 60 mg (n = 6),1 (16.7) n (%)
same,Euphoric mood (TEAE),[2]; 60 mg (n = 6),0 n (%)
same,Feeling abnormal (TEAE),[2]; 60 mg (n = 6),0 n (%)
same,Feeling hot (TEAE),[2]; 60 mg (n = 6),0 n (%)
same,Feeling of relaxation (TEAE),[2]; 60 mg (n = 6),0 n (%)
same,Headache (TEAE),[2]; 60 mg (n = 6),1 (16.7) n (%)
same,Hunger (TEAE),[2]; 60 mg (n = 6),0 n (%)
same,Hyperhidrosis (TEAE),[2]; 60 mg (n = 6),0 n (%)
same,Irritability (TEAE),[2]; 60 mg (n = 6),0 n (%)
same,Lacrimation increased (TEAE),[2]; 60 mg (n = 6),0 n (%)
same,Mild TEAE,[2]; 60 mg (n = 6),5 (83.3) n (%)
same,Moderate TEAE,[2]; 60 mg (n = 6),0 n (%)
same,Orthostatic HR response increase (TEAE),[2]; 60 mg (n = 6),1 (16.7) n (%)
same,Paresthesia (TEAE),[2]; 60 mg (n = 6),0 n (%)
same,Somnolence (TEAE),[2]; 60 mg (n = 6),4 (66.7) n (%)
same,Toothache (TEAE),[2]; 60 mg (n = 6),0 n (%)
same,Tremor (TEAE),[2]; 60 mg (n = 6),0 n (%)
same,Vision blurred (TEAE),[2]; 60 mg (n = 6),0 n (%)
same,Yawning (TEAE),[2]; 60 mg (n = 6),0 n (%)
same,Any TEAE,[2]; 80 mg (n = 6),5 (83.3) n (%)
same,Asthenopia (TEAE),[2]; 80 mg (n = 6),1 (16.7) n (%)
same,Blood bilirubin increased (TEAE),[2]; 80 mg (n = 6),0 n (%)
same,Disturbance in attention (TEAE),[2]; 80 mg (n = 6),1 (16.7) n (%)
same,Dizziness postural (TEAE),[2]; 80 mg (n = 6),2 (33.3) n (%)
same,Euphoric mood (TEAE),[2]; 80 mg (n = 6),1 (16.7) n (%)
same,Feeling abnormal (TEAE),[2]; 80 mg (n = 6),0 n (%)
same,Feeling hot (TEAE),[2]; 80 mg (n = 6),0 n (%)
same,Feeling of relaxation (TEAE),[2]; 80 mg (n = 6),2 (33.3) n (%)
same,Headache (TEAE),[2]; 80 mg (n = 6),0 n (%)
same,Hunger (TEAE),[2]; 80 mg (n = 6),0 n (%)
same,Hyperhidrosis (TEAE),[2]; 80 mg (n = 6),0 n (%)
same,Irritability (TEAE),[2]; 80 mg (n = 6),1 (16.7) n (%)
same,Lacrimation increased (TEAE),[2]; 80 mg (n = 6),0 n (%)
same,Mild TEAE,[2]; 80 mg (n = 6),5 (83.3) n (%)
same,Moderate TEAE,[2]; 80 mg (n = 6),0 n (%)
same,Orthostatic HR response increase (TEAE),[2]; 80 mg (n = 6),0 n (%)
same,Paresthesia (TEAE),[2]; 80 mg (n = 6),1 (16.7) n (%)
same,Somnolence (TEAE),[2]; 80 mg (n = 6),5 (83.3) n (%)
same,Toothache (TEAE),[2]; 80 mg (n = 6),0 n (%)
same,Tremor (TEAE),[2]; 80 mg (n = 6),0 n (%)
same,Vision blurred (TEAE),[2]; 80 mg (n = 6),1 (16.7) n (%)
same,Yawning (TEAE),[2]; 80 mg (n = 6),0 n (%)
same,Moderate TEAEs,[2]; 90 mg,one instance of somnolence
same,Any TEAE,[2]; 90 mg (n = 6),6 (100) n (%)
same,Asthenopia (TEAE),[2]; 90 mg (n = 6),0 n (%)
same,Blood bilirubin increased (TEAE),[2]; 90 mg (n = 6),0 n (%)
same,Disturbance in attention (TEAE),[2]; 90 mg (n = 6),0 n (%)
same,Dizziness postural (TEAE),[2]; 90 mg (n = 6),0 n (%)
same,Euphoric mood (TEAE),[2]; 90 mg (n = 6),4 (66.7) n (%)
same,Feeling abnormal (TEAE),[2]; 90 mg (n = 6),1 (16.7) n (%)
same,Feeling hot (TEAE),[2]; 90 mg (n = 6),0 n (%)
same,Feeling of relaxation (TEAE),[2]; 90 mg (n = 6),1 (16.7) n (%)
same,Headache (TEAE),[2]; 90 mg (n = 6),0 n (%)
same,Hunger (TEAE),[2]; 90 mg (n = 6),0 n (%)
same,Hyperhidrosis (TEAE),[2]; 90 mg (n = 6),1 (16.7) n (%)
same,Irritability (TEAE),[2]; 90 mg (n = 6),1 (16.7) n (%)
same,Lacrimation increased (TEAE),[2]; 90 mg (n = 6),0 n (%)
same,Mild TEAE,[2]; 90 mg (n = 6),5 (83.3) n (%)
same,Moderate TEAE,[2]; 90 mg (n = 6),1 (16.7) n (%)
same,Orthostatic HR response increase (TEAE),[2]; 90 mg (n = 6),0 n (%)
same,Paresthesia (TEAE),[2]; 90 mg (n = 6),0 n (%)
same,Somnolence (TEAE),[2]; 90 mg (n = 6),4 (66.7) n (%)
same,Toothache (TEAE),[2]; 90 mg (n = 6),0 n (%)
same,Tremor (TEAE),[2]; 90 mg (n = 6),1 (16.7) n (%)
same,Vision blurred (TEAE),[2]; 90 mg (n = 6),0 n (%)
same,Yawning (TEAE),[2]; 90 mg (n = 6),1 (16.7) n (%)
same,Blood bilirubin increased (TEAE),[2]; All doses (n = 18),0 n
same,Feeling hot (TEAE),[2]; All doses (n = 18),0 n
same,Hunger (TEAE),[2]; All doses (n = 18),0 n
same,Lacrimation increased (TEAE),[2]; All doses (n = 18),0 n
same,Toothache (TEAE),[2]; All doses (n = 18),0 n
same,Severe TEAEs and deaths,"[3]; 30, 60, 90 mg single doses",no reported severe TEAEs nor deaths
same,Back pain (TEAE),[3]; [4],0 n
same,Confusional state (TEAE),[3]; [4],0 n
same,Diarrhea (TEAE),[3]; [4],0 n
same,Feeling drunk (TEAE),[3]; [4],0 n
same,Fine motor skill dysfunction (TEAE),[3]; [4],0 n
same,Hiccups (TEAE),[3]; [4],0 n
same,Irritability (TEAE),[3]; [4],0 n
same,Lacrimation increased (TEAE),[3]; [4],0 n
same,Swelling face (TEAE),[3]; [4],0 n
same,Tremor (TEAE),[3]; [4],0 n
same,Upper respiratory tract infection (TEAE),[3]; [4],0 n
same,Back pain (TEAE),[3]; [5],0 n
same,Confusional state (TEAE),[3]; [5],0 n
same,Fine motor skill dysfunction (TEAE),[3]; [5],0 n
same,Hiccups (TEAE),[3]; [5],0 n
same,Irritability (TEAE),[3]; [5],0 n
same,Lacrimation increased (TEAE),[3]; [5],0 n
same,Swelling face (TEAE),[3]; [5],0 n
same,Upper respiratory tract infection (TEAE),[3]; [5],0 n
same,Back pain (TEAE),[3]; [6],0 n
same,Diarrhea (TEAE),[3]; [6],0 n
same,Hiccups (TEAE),[3]; [6],0 n
same,Lacrimation increased (TEAE),[3]; [6],0 n
same,Upper respiratory tract infection (TEAE),[3]; [6],0 n

# — patent US20240216395A1, “19-NOR C3,3-DISUBSTITUTED C21 -N-PYRAZOLYL STEROID FOR USE IN TREATING MAJOR DEPRESSIVE DISORDER AND […]” (priority 2021, published 2024)
